Source: patent US10933009B2, “Formulations and methods for treating dermatological disorders and diseases” (VAPOGENIX, INC., priority 2011, dated 2021)

Assay: Isoflurane remaining in uncapped vials, determined by weighing over time
Type: physicochemical
Method: In the Examples that follow, the stability of isoflurane in the described compositions was determined in two ways. First, the compositions were examined for the presence of phase separation at the macroscopic level. Secondly, isoflurane content of the compositions was determined by weighing the remaining isoflurane in the composition when they were left uncapped over time. Briefly, glass vials were filled with 5-10 ml of the composition vehicle and then weighed; one of them received only vehicle (i.e., no isoflurane) and served as control. The other vials received varying amounts of isoflurane. They were left uncapped in the hood. Over time, the vials were weighed to see if the isoflurane stayed in the composition or had evaporated. The amount evaporated over time in the vehicle control was subtracted from that in the isoflurane-containing composition.
The pure form of isoflurane is a volatile anesthetic. In order to assess the volatility of isoflurane, two vials received the indicated amounts of pure form isoflurane. The vials were placed in the chemical fume hood and left uncapped. The vials were weighed at the indicated times to determine the amount of evaporated isoflurane. As it is shown in the table below 0.7893 g isoflurane was evaporated within 3 hours, while 3.4825 g isoflurane took approximately 8 hrs to evaporate completely. These amounts of isoflurane are similar to the amounts of isoflurane that were used to prepare the isoflurane compositions in the Examples that follow.

[1] = pure form of isoflurane 0.7893 g, uncapped vial
[2] = pure form of isoflurane 3.4825 g, uncapped vial

Structure (SMILES): FC(F)OC(Cl)C(F)(F)F (stereo not drawn) [isoflurane]
- time for isoflurane to evaporate (0.7893 g pure isoflurane, uncapped vial in fume hood): ≤ 3 h
- time for isoflurane to evaporate completely (3.4825 g pure isoflurane, uncapped vial in fume hood): approximately 8 hrs
- 0 h (% remaining iso) (pure form of isoflurane 0.7893 g, uncapped vial in fume hood): 100%
- 0.25 h (% remaining iso) [1]: 85%
- 1 h (% remaining iso) [1]: 52%
- 2 h (% remaining iso) [1]: 14%
- 3 h (% remaining iso) [1]: 0%
- 0 h (% remaining iso) (pure form of isoflurane 3.4825 g, uncapped vial in fume hood): 100%
- 0.25 h (% remaining iso) [2]: 96%
- 1 h (% remaining iso) [2]: 86%
- 2 h (% remaining iso) [2]: 75%
- 3 h (% remaining iso) [2]: 62%
- 5 h (% remaining iso) (pure form of isoflurane 3.4825 g, uncapped vial, 5 h): 38%
- 7 h (pure form of isoflurane 3.4825 g, uncapped vial, 7 h): 13%
- 8 h (pure form of isoflurane 3.4825 g, uncapped vial, 8 h): 3%
